Data reported in PMC9953269, “In Vivo Acute Toxicity Studies of Novel Anti-Melanoma Compounds Downregulators of hnRNPH1/H2” (Biomolecules, 2023).

What was measured:
primary melanocytes = conditions: in vitro; cited from earlier work
Balb/c mice [1] = assay: Blood chemistry after 21-day acute toxicity study; format: in vivo; conditions: 50 mg/kg bw sc 3×/week for 21 days, mean ± SD; for Creatinine: n=6, reference range 0.2–0.4; for Total protein: n=6, reference range 4.6–8.9; for BUN: n=6, reference range 7.0–26; for Phosphorus: n=6, reference range 8.2–14.7; for Calcium: n=6, reference range 9.4–12.5; for Glucose: n=6, reference range 129–329
Method: (§1) This study used 5- to 7-week-old male and female Balb/c (Jackson Laboratories) mice. The mice were housed in standard mouse shoe-box cages and maintained in a 12-hr light/12-hr dark cycle, with 50% humidity and 20 ± 3 °C. The mice had free access to a standard pellet diet (Certified PicoLab® Rodent Diet 20, Lab Diet) and water ad libitum. The study was conducted in accordance with the guidelines of the Nova Southeastern University (NSU) Institutional Animal Care and Use Committee (NSU IACUC protocol 2019.12.DM4).
(§2) The animals were divided into four groups with each group containing six mice (three male and three female). Group 1: non-treated control mice; Group 2: animals were treated with a vehicle control (10%/90% DMSO/sterile water, USP sterile injectable grade) for 21 days; Group 3: animals were treated with 2155-14 (50 mg/kg body weight) for 21 days; and Group 4: animals were treated with 2155-18 (50 mg/kg body weight) for 21 days three times/week. Compounds (2155-14 and 2155-18) were freshly prepared in 10% DMSO/H2O (both USP injectable grade) for each treatment day. Both 2155-14 and 2155-18 were weighed into autoclaved 1.5 mL Eppendorf vials using analytical scales. USP grade DMSO was added to each vial under aseptic conditions and vortexed. USP grade injectable sterile H2O was then added to each vial and again vortexed. Next, 1 mL insulin syringes with a 26-gauge needle were filled with 0.2 mL of the compound and delivered to the vivarium in the closed carrier for animal treatment. For the vehicle control group, syringes were filled with 0.2 mL of 10% DMSO/H2O (USP injectable grade).
(§3) All mice were euthanized after 21 days by CO2 overdose. Whole blood samples were collected via cardiocentesis with a 25-gauge needle immediately after euthanasia. Blood samples were collected in MiniCollect® Serum and Plasma Tubes containing either K3EDTA or lithium heparin for CBC and blood chemistry, respectively. Blood smears were prepared from whole blood and analyzed for the morphological changes of blood cells under the microscope.
(§4) The heart, lungs, stomach, intestines, pancreas, spleen, kidney with adrenal, liver, and brain were collected and placed in 10% neutral buffered formalin for histopathology. The tissues were processed via standard tissue processing to produce H&E slides. All H&E slides were reviewed blind to the treatment group. Tissues were evaluated for the presence of inflammation, degeneration, signs of toxicity, and any other abnormalities. CBC, blood chemistry, and histopathology analyses were performed at the Division of Comparative Pathology, University of Miami.
(§5) Statistical significance was set at p < 0.05. All data were analyzed using one-way ANOVA to compare means, and significant differences were further analyzed by Tukey’s multiple comparisons using Prism (version 8.0, GraphPad Inc., San Diego, CA, USA).

[2] = system: various cell types (liver, lung, breast, brain, skin, ovary, primary melanocytes, primary keratinocytes); conditions: in vitro, tested up to 100 µM; cited from earlier work
Balb/c mice [3] = assay: Body weight during 21-day acute toxicity study; format: in vivo; conditions: 50 mg/kg BW sc 3×/week for 3 weeks, n=6
Method: as §1
The animals were divided into four groups with each group containing six mice (three male and three female). Group 1: non-treated control mice; Group 2: animals were treated with a vehicle control (10%/90% DMSO/sterile water, USP sterile injectable grade) for 21 days; Group 3: animals were treated with 2155-14 (50 mg/kg body weight) for 21 days; and Group 4: animals were treated with 2155-18 (50 mg/kg body weight) for 21 days three times/week. Compounds (2155-14 and 2155-18) were freshly prepared in 10% DMSO/H2O (both USP injectable grade) for each treatment day. […]
as §5

Balb/c mice [4] = assay: Overall acute toxicity after sc administration; format: in vivo; conditions: 50 mg/kg sc, 21 days
Method: as §1
The animals were divided into four groups with each group containing six mice (three male and three female). […]
All mice were euthanized after 21 days by CO2 overdose. […] Blood smears were prepared from whole blood and analyzed for the morphological changes of blood cells under the microscope.
(§6) The heart, lungs, stomach, intestines, pancreas, spleen, kidney with adrenal, liver, and brain were collected and placed in 10% neutral buffered formalin for histopathology. […] Tissues were evaluated for the presence of inflammation, degeneration, signs of toxicity, and any other abnormalities. […]

Balb/c mice [5] = assay: Histopathology of organs (H&E) after 21-day acute toxicity study; format: in vivo; conditions: 50 mg/kg sc, 21 days
Method: as §2, §6

melanoma cells = conditions: in vitro; read-out: IC50, inhibition of viability of melanoma cells; cited from earlier work
Balb/c mice [6] = assay: Complete blood count (CBC) after 21-day acute toxicity study; format: in vivo; conditions: 50 mg/kg bw sc 3×/week for 21 days; for Eosinohils / Monocytes / WBC / RBC / Segmented Neutrophils / Hgb / MCH / MCHC / HCT / Lymphocytes / MCV / Platelets: mean ± SD; for Eosinohils: n=6, reference range 0.11–4.91; for Monocytes: n=6, reference range 3.29–12.48; for WBC: n=6, reference range 3.48–14.03; for RBC: n=6, reference range 6.93–12.24; for Segmented Neutrophils: n=6, reference range 9.86–39.11; for Hgb: n=6, reference range 12.6–20.5; for MCH: n=6, reference range 13.2–17.6; for MCHC: n=6, reference range 23.3–32.7; for HCT: n=6, reference range 42.1–68.3; for Lymphocytes: n=6, reference range 48.81–83.19; for MCV: n=6, reference range 50.7–64.4; for Platelets: n=6, reference range 420–1698; for Banded Neutrophils: n=6, reference range 0–1; for Basophils: n=6, reference range 0–1.84
Method: as §1, §2, §3, §4, §5

O=C1NC[C@H](Cc2ccccc2)N(C[C@@H]2CCCN2C[C@H](Cc2ccccc2)N2C[C@H](Cc3ccc(O)cc3)N(CCC34CC5CC(CC(C5)C3)C4)C(=O)C2=O)C1=O [Compound 2155-18]
Effect on viability of primary melanocytes (primary melanocytes): do not have an effect on the viability of primary melanocytes
Creatinine (Balb/c mice [1]): * 0.46 ± 0.11 mg/dL
Total protein (Balb/c mice [1]): 6.7 ± 0.48 g/dL
BUN (Balb/c mice [1]): 16.7 ± 1.6 mg/dL
Phosphorus (Balb/c mice [1]): * 15.3 ± 0.25 mg/dL
Calcium (Balb/c mice [1]): 8.7 ± 0.75 mg/dL
Glucose (Balb/c mice [1]): 212 ± 50.5 mg/dL
TC50, toxicity against various cell types [2]: > 100 µM
Change in body weight versus control groups (Balb/c mice [3]): No significant changes in body weight
Acute toxicity after sc administration (Balb/c mice [4]): lack of acute toxicity
Histopathological examination of hearts and livers (Balb/c mice [5]): no adverse effects
IC50 (melanoma cells): 0.5 to 10 µM
Eosinohils (Balb/c mice [6]): 2 ± 1%
Monocytes (Balb/c mice [6]): 6.7 ± 2.3%
WBC (Balb/c mice [6]): 4.2 ± 2.7 K/µL
RBC (Balb/c mice [6]): 7.9 ± 1.4 M/µL
Segmented Neutrophils (Balb/c mice [6]): 24.7 ± 10.9%
Hgb (Balb/c mice [6]): * 11.9 ± 1.6 g/dL
MCH (Balb/c mice [6]): 14.7 ± 0.57 pg
MCHC (Balb/c mice [6]): 25.3 ± 0.58 g/dL
HCT (Balb/c mice [6]): 46.9 ± 6.4%
Lymphocytes (Balb/c mice [6]): 70.7 ± 11.3%
MCV (Balb/c mice [6]): 59.3 ± 2.1 fL
Platelets (Balb/c mice [6]): 741 ± 305 K/µL
Banded Neutrophils (Balb/c mice [6]): 0%
Basophils (Balb/c mice [6]): 0%

O=C1NC[C@H](Cc2ccccc2)N(C[C@@H]2CCCN2C[C@@H](CC2CCCCC2)N2C[C@H](Cc3ccc(O)cc3)N(CCc3ccccc3)C(=O)C2=O)C1=O [Compound 2155-14]
Effect on viability of primary melanocytes (primary melanocytes): do not have an effect on the viability of primary melanocytes
Creatinine (Balb/c mice [1]): * 0.44 ± 0.19 mg/dL
Total protein (Balb/c mice [1]): 7.1 ± 0.6 g/dL
BUN (Balb/c mice [1]): 18.3 ± 2.5 mg/dL
Phosphorus (Balb/c mice [1]): 13.6 ± 0.4 mg/dL
Calcium (Balb/c mice [1]): 9.1 ± 0.85 mg/dL
Glucose (Balb/c mice [1]): 181 ± 25.7 mg/dL
TC50, toxicity against various cell types [2]: > 100 µM
Change in body weight versus control groups (Balb/c mice [3]): No significant changes in body weight
Acute toxicity after sc administration (Balb/c mice [4]): lack of acute toxicity
Histopathological examination of hearts and livers (Balb/c mice [5]): no adverse effects
IC50 (melanoma cells): 0.5 to 10 µM
Eosinohils (Balb/c mice [6]): 0.5 ± 1.2%
Monocytes (Balb/c mice [6]): 4.25 ± 4.27%
WBC (Balb/c mice [6]): 5.1 ± 1.6 K/µL
RBC (Balb/c mice [6]): 10.6 ± 2.1 M/µL
Segmented Neutrophils (Balb/c mice [6]): 18.8 ± 8.0%
Hgb (Balb/c mice [6]): 14.1 ± 1.6 g/dL
MCH (Balb/c mice [6]): 14 ± 2.3 pg
MCHC (Balb/c mice [6]): 23 ± 5.1 g/dL
HCT (Balb/c mice [6]): 61.1%
Lymphocytes (Balb/c mice [6]): 78.3 ± 7.5%
MCV (Balb/c mice [6]): 61 ± 2.2 fL
Platelets (Balb/c mice [6]): 542 ± 95 K/µL
Banded Neutrophils (Balb/c mice [6]): 0%
Basophils (Balb/c mice [6]): 0%
